Test results reported in patent US20070015743A1, “Quinazoline derivatives as antitumor agents” (priority 2003, published 2007).

Legend:
[1] = molecular target: T1, erbB2 (Homo sapiens, UniProt P04626); experiment: Clone 24 phospho-erbB2 cell assay, Test (c); type: cell-based; settings: MCF7 derived cell line overexpressing erbB2 (Clone 24 cells); read-out: IC50 (μM) Test (c): Inhibition of erbB2 tyrosine kinase protein phosphorylation
T1 construct: a cell line that overexpresses full length wild type erbB2 protein; expressed in transfected cells; host or cells: MCF7 (breast carcinoma) derived 'Clone 24' cells
T1 sequence (P04626 23-1255): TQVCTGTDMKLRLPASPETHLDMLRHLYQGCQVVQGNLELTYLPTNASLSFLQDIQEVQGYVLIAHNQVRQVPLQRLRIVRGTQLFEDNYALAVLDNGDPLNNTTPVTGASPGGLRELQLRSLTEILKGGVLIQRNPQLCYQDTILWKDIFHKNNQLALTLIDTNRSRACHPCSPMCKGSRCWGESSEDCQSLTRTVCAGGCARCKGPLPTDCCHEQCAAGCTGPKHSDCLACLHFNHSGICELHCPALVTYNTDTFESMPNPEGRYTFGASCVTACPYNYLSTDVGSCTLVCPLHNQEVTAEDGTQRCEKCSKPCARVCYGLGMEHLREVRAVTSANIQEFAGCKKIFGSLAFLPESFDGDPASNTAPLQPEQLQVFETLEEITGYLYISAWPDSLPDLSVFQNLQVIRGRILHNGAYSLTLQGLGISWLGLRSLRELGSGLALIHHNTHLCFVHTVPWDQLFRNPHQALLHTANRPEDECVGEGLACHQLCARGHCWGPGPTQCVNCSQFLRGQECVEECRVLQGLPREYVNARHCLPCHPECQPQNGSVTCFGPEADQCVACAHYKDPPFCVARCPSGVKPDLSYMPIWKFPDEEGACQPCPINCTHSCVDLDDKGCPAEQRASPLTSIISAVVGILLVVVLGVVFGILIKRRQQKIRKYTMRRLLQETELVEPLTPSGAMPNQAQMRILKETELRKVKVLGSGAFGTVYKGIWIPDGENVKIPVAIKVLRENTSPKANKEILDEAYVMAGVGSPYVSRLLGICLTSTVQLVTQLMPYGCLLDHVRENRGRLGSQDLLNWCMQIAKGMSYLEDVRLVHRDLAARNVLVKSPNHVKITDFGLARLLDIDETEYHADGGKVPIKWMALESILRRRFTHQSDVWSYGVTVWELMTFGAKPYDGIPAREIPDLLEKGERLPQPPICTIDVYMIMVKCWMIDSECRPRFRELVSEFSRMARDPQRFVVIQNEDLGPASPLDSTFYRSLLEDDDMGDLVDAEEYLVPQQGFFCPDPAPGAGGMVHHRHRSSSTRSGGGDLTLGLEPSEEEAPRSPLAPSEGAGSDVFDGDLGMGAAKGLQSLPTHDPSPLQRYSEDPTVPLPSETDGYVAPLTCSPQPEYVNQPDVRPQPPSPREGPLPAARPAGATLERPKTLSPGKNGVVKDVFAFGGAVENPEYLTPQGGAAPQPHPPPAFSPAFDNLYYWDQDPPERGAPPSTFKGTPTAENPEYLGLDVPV
Procedure: This immunofluorescence end point assay measures the ability of a test compound to inhibit the phosphorylation of erbB2 in a MCF7 (breast carcinoma) derived cell line which was generated by transfecting MCF7 cells with the full length erbB2 gene using standard methods to give a cell line that overexpresses full length wild type erbB2 protein (hereinafter ‘Clone 24’ cells).
Clone 24 cells were cultured in Growth Medium (phenol red free Dulbecco's modified Eagle's medium (DMEM) containing 10% foetal bovine serum, 2 mM glutamine and 1.2 mg/ml G418) in a 7.5% CO2 air incubator at 37° C. Cells were harvested from T75 stock flasks by washing once in PBS (phosphate buffered saline, pH7.4, Gibco No. 10010-015) and harvested using 2 mls of Trypsin (1.25 mg/ml)/ethylaminediaminetetraacetic acid (EDTA) (0.8 mg/ml) solution. The cells were resuspended in Growth Medium. Cell density was measured using a haemocytometer and viability was calculated using Trypan Blue solution before being further diluted in Growth Medium and seeded at a density of 1×10^4 cells per well (in 100 ul) into clear bottomed 96 well plates (Packard, No. 6005182).
3 days later, Growth Medium was removed from the wells and replaced with 100 ul Assay Medium (phenol red free DMEM, 2 mM glutamine, 1.2 mg/ml G418) either with or without erbB inhibitor compound. Plates were returned to the incubator for 4 hrs and then 20 μl of 20% formaldehyde solution in PBS was added to each well and the plate was left at room temperature for 30 minutes. This fixative solution was removed with a multichannel pipette, 100 μl of PBS was added to each well and then removed with a multichannel pipette and then 50 μl PBS was added to each well. Plates were then sealed and stored for up to 2 weeks at 4° C.
Immunostaining was performed at room temperature. […]
The Fluorescence signal is each well was measured using an Acumen Explorer Instrument (Acumen Bioscience Ltd.), a plate reader that can be used to rapidly quantitate features of images generated by laser-scanning. […]

[2] = molecular target: T2, erbB2 tyrosine kinase (Homo sapiens, UniProt P04626); experiment: Protein tyrosine kinase phosphorylation assay, Test (a), erbB2; type: biochemical; settings: read-out: IC50 (μM) Test (a): Inhibition of erbB2 tyrosine kinase protein phosphorylation
T2 construct: Recombinant intracellular fragments of EGFR, erbB2 and erbB4; made in house; host or cells: baculovirus/Sf21 insect cells (cleared lysate used)
T2 sequence (P04626 676-1255 limits assumed): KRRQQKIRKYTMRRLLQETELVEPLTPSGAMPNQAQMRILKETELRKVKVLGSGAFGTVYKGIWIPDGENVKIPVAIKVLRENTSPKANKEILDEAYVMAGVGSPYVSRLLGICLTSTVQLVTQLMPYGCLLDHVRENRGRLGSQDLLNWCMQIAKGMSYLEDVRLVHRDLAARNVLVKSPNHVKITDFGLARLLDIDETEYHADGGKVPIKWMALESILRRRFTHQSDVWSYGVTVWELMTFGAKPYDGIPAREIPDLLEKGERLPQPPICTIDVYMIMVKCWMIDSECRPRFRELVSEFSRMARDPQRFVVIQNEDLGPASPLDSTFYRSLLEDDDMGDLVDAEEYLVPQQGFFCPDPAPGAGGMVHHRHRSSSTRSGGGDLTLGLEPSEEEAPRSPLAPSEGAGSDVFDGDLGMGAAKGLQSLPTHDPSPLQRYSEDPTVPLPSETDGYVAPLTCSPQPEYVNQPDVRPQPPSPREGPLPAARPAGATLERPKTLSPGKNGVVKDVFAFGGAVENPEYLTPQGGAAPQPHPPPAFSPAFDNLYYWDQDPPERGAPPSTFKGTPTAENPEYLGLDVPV
Procedure: (§1) Recombinant intracellular fragments of EGFR, erbB2 and erbB4 (accession numbers X00588, X03363 and L07868 respectively) were cloned and expressed in the baculovirus/Sf21 system. Lysates were prepared from these cells by treatment with ice-cold lysis buffer (20 mM N-2-hydroxyethylpiperizine-N′-2-ethanesulfonic acid (HEPES) pH7.5, 150 mM NaCl, 10% glycerol, 1% Triton X-100, 1.5 mM MgCl2, 1 mM ethylene glycol-bis(β-aminoethyl ether)N′,N′,N′,N′-tetraacetic acid (EGTA), plus protease inhibitors and then cleared by centrifugation.
Constitutive kinase activity of these recombinant proteins was determined by their ability to phosphorylate a synthetic peptide (made up of a random co-polymer of Glutamic Acid, Alanine and Tyrosine in the ratio of 6:3:1). Specifically, Maxisorb™ 96-well immunoplates were coated with synthetic peptide (0.2 μg of peptide in a […] phosphate buffered saline (PBS) solution and incubated at 4° C. overnight). Plates were washed in 50 mM HEPES pH 7.4 at room temperature to remove any excess unbound synthetic peptide. EGFR or erbB2 activities were assessed by incubation in peptide coated plates for 20 minutes at room temperature in 100 mM HEPES pH 7.4 at room temperature, adenosine trisphosphate (ATP) at Km concentration for the respective enzyme, 10 mM MnCl2, 0.1 mM Na3VO4, 0.2 mM DL-dithiothreitol (DTT), 0.1% Triton X-100 with test compound in DMSO (final concentration of 2.5%). […]
The immobilised phospho-peptide product of the reaction was detected by immunological methods. […] After further washing, HRP activity in each well of the plate was measured colorimetrically using 22′-Azino-di-[3-ethylbenzthiazoline sulfonate (6)]diammonium salt crystals (ABTS™ from Roche) as a substrate. Quantification of colour development and thus enzyme activity was achieved by the measurement of absorbance at 405 nm on a Molecular Devices ThermoMax microplate reader. Kinase inhibition for a given compound was expressed as an IC50 value. […] The range of phosphorylation was calculated from the positive (vehicle plus ATP) and negative (vehicle minus ATP) control values.

[3] = molecular target: T3, EGFR tyrosine kinase (Homo sapiens, UniProt P00533); experiment: Protein tyrosine kinase phosphorylation assay, Test (a), EGFR; type: biochemical; settings: read-out: IC50 (μM) Test (a): Inhibition of EGFR tyrosine kinase protein phosphorylation
T3 construct: Recombinant intracellular fragments of EGFR, erbB2 and erbB4; made in house; host or cells: baculovirus/Sf21 insect cells (cleared lysate used)
T3 sequence (P00533 669-1210 limits assumed): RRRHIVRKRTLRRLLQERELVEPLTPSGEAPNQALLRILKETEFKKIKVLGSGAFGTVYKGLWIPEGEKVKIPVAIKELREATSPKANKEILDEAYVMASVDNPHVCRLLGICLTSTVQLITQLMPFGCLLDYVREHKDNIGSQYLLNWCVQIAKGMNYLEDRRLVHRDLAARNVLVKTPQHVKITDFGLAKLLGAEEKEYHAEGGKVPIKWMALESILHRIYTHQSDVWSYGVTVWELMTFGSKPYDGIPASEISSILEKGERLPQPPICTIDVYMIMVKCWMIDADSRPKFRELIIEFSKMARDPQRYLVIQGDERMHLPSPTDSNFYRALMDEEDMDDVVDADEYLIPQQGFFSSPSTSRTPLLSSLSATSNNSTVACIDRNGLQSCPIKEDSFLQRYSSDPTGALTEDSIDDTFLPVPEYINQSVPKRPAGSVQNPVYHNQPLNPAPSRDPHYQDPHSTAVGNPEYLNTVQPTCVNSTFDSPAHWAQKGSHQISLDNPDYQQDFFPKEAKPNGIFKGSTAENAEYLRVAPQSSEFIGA
Procedure: This test measures the ability of a test compound to inhibit the phosphorylation of a tyrosine containing polypeptide substrate by EGFR tyrosine kinase enzyme.
as §1
Constitutive kinase activity of these recombinant proteins was determined by their ability to phosphorylate a synthetic peptide (made up of a random co-polymer of Glutamic Acid, Alanine and Tyrosine in the ratio of 6:3:1). […]
The immobilised phospho-peptide product of the reaction was detected by immunological methods. […] After further washing, HRP activity in each well of the plate was measured colorimetrically using 22′-Azino-di-[3-ethylbenzthiazoline sulfonate (6)]diammonium salt crystals (ABTS™ from Roche) as a substrate. Quantification of colour development and thus enzyme activity was achieved by the measurement of absorbance at 405 nm on a Molecular Devices ThermoMax microplate reader. […]

IC50 [1]	IC50 [2]	IC50 [3]	Structure (SMILES)
1.4 µM	0.048 µM	–	CN(C)CC(=O)N1CCC[C@@H]1COc1cccc2ncnc(Nc3ccc(OCc4cncs4)c(Cl)c3)c12 [Example 25, N-[3-Chloro-4-(1,3-thiazol-5-ylmethoxy)phenyl]-5-({(2R)-1-[(dimethylamino)acetyl]pyrrolidin-2-yl}methoxy)quinazolin-4-amine]
0.19 µM	0.034 µM	2.4 µM	O=C(CO)N1CCC[C@H](COc2cccc3ncnc(Nc4ccc(OCc5cscn5)c(Cl)c4)c23)C1 [Example 78, 2-((3S)-3-{[(4-{[3-chloro-4-(1,3-thiazol-4-ylmethoxy)phenyl]amino}quinazolin-5-yl)oxy]methyl}piperidin-1-yl)-2-oxoethanol]
2.4 µM	0.63 µM	33 µM	Cc1cccc(COc2ccc(Nc3ncnc4cccc(OC[C@@H]5CCCN5C(=O)CO)c34)cc2Cl)n1 [Example 40]
